Tests used:
[1] = tested on: M. tuberculosis in human alveolar macrophages; test: M. tuberculosis in human alveolar macrophages, gallium nitrate with or without anti-tuberculous antibiotics; format: cell-based
Method: The gallium-containing compounds can also be tested for their ability to inhibit intracellular pathogens in tissue culture assays. In general, in these assays, the macrophages are placed in culture and incubated with the intracellular pathogen at an approximate cell to pathogen ratio of preferably at least 1:1 to about 1:5 cells:pathogen. Exemplary culture conditions are provided in the assays detailed in the Examples. For assays assessing M. tuberculosis infection, freshly adherent monocytes, 12 day-old adherent MDMs, or freshly adherent alveolar macrophages are incubated with M. tuberculosis, MAI or other intracellular bacteria at a ratio of about 1:1 to about 1:5 (phagocyte:bacterium). For M. tuberculosis or MAI, the bacteria are incubated with the phagocyte for 2 hr at 37° C. in RPMI/HEPES media with 2.5% serum or human serum albumin (serum-free). The cells are washed to remove non-adherent bacteria and monolayers are replated with RPMI containing 1% autologous serum (to maintain phagocyte viability but not to sustain extracellular growth of bacteria). Gallium-containing compounds, such as gallium nitrate, with, or without, other agents such as antibiotics, cytokines etc., are added about 24 hr. later and mycobacterial growth in cell lysates is then assessed over the next several days either by the radiometric BACTEC system or by colony-forming units on agarose plates. In each experiment, growth is assessed relative to control monolayers where no drug has been added.
Human alveolar macrophages were purified from healthy non-smoking adult volunteers and placed in monolayer culture. M. tuberculosis infected cells were treated with gallium nitrate as described in Example 2. Antituberculous antibiotics were added to wells alone or with gallium nitrate at 500 μM 24 h after M. tuberculosis infection. Antituberculous antibiotics tested included streptomycin (2.016 μg/ml), isoniazid (0.1 μg/ml), rifampin (2.0 μg/ml), and ethambutol (2.52 μg/ml) and the combination of antibiotics was denoted as SIRE. Antibiotics were obtained in lyophilized form from BACTEC. The antibiotics were reconstituted in sterile water per package instructions. With reference to FIG. 3, SIRE refers to combinations of streptomycin, isoniazid, rifampin and ethambutol while IR refers to combinations of Isoniazid and rifampin.
Infected macrophages were cultured for 24 h, 48 h, or 120 h. Growth index readings of combined supernatants and cell lysates were measured in the BACTEC 460 TB system. […] Since these antibiotics have a number of unpleasant side effects that are reduced at reduced concentrations of the drugs, combined therapies that permit these antibiotics to be administered at lower doses when combined with gallium nitrate is significant and may help to promote better drug compliance in patients infected with M. tuberculosis.

[2] = tested on: M. tuberculosis strain H37Ra; format: cell-based
[3] = tested on: Leishmania chagasi promastigotes; test: Inhibition of Leishmania chagasi promastigote growth; format: cell-based
Method: Visceral leishmaniasis, the most serious form of human disease cause by Leishmania species, is fatal if untreated. Currently available treatment regimes suffer from both suboptimal efficacy and considerable toxicity. […] Leishmania chagasi, the cause of visceral leishmaniasis requires iron for growth and can obtain that iron from human transferrin, lactoferrin and hemin. When incubated in an in vitro culture system (using the culture methods of Wilson et al. Infect. Immun. 62:3262-3269, 1994), L. chagasi promastigotes were inhibited by the presence of gallium nitrate in a concentration dependent manner with inhibition observed at about at least 500 μM and higher (see Example 14 and FIG. 9).
Amastigotes were isolated from the spleens of infected hamsters and allowed to convert to promastigotes by cultivation in a modified minimal essential medium (HOMEM) with 10% heat inactivated fetal calf serum and hemin (8 μM). Parasites were used within 21 days of isolation from an infected hamster. Promastigote cultures were seeded at 10^6 promastigotes per ml and used after 2 to 3 days in logarithmic phase or 5 to 7 days in stationary phase of growth. During growth studies with gallium nitrate, promastigotes were suspended in iron-containing HOMEM to allow for organism growth. […]

[4] = tested on: infected and uninfected cells; conditions: read-out: concentration not toxic in vitro
[5] = cited from earlier work

O=[N+]([O-])[O-].O=[N+]([O-])[O-].O=[N+]([O-])[O-].[Ga+3] [gallium nitrate]
augmentation of growth inhibition by antibiotics ([1]; gallium nitrate 500 μM plus suboptimal antibiotics (1/10 the standard concentrations), human alveolar macrophages): augments the ability of suboptimal concentrations of antibiotics | enhancement of antibiotic growth inhibition ([1]; suboptimal streptomycin, isoniazid, rifampin and ethambutol or suboptimal Isoniazid and rifampin): clear-cut enhancement in inhibition of M. tuberculosis growth | concentration with marked inhibition of growth (comparison with gallium transferrin) [2]: 100 µM | concentration at which inhibition was observed ([3]; L. chagasi promastigotes): at least 500 μM | inhibition of promastigote growth ([3]; about 250 μM to about 2 mM, about 24 to about 120 hrs): significantly inhibited | MNTC [4]: 1 mM | dose that is non-toxic in vivo ([5]; in vivo): at least 200 mg/m^2 /day | plasma concentration that is non-toxic in vivo ([5]; in vivo): greater than 1.2 mg/L | tolerated dose ([5]; intravenous, at least 7 days (Todd et al.)): at least 200 mg/m^2 /day | safe dose in cancer patient therapy ([5]; literature, cancer patients): at least 200 mg/m^2 /day | tolerability ([5]; patients with cancer-related hypercalcemia): well tolerated, producing few clinically relevant adverse effects

— US6203822A, “Gallium-containing compounds for the treatment of infections caused by intracellular pathogens and pathogens causing chronic pulmonary infection” (priority 1996, dated 2001)
